Measurements published in patent publication US20070027118A1 (priority 2005, published 2007).

How the values were obtained:
11β-hsd-1 enzyme [1] = biological target: T1, 11β-hsd-1 enzyme (Homo sapiens, UniProt P28845); assay: biochemical
Summary of the method: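 Enzyme (5 nM) pre-incubated ≥30 min at RT with inhibitor and 500 μM NADPH in triethanolamine buffer pH 8.0; reaction started with glucose-6-phosphate regenerating system and 200 nM 3H-cortisone, stopped with DMSO after 60 min. Product quantified by radio-HPLC; Kiapp from Morrison tight-binding equation.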

11β-hsd-1 enzyme [2] = biological target: T1, 11β-hsd-1 enzyme; assay: biochemical; details: read-out: % Inh @ 0.1 mM
Summary of the method: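 Human 11β-HSD-1 (5 nM) pre-incubated ≥30 min with inhibitor and 500 μM NADPH in triethanolamine buffer pH 8.0 with NaCl, n-dodecyl β-D-maltoside and β-ME; reaction started with G6P/G6PDH/MgCl2 regenerating system and 200 nM 3H-cortisone, run 60 min, stopped with DMSO. 3H-cortisol and substrate separated by radio-HPLC; percent inhibition from peak areas.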

T1 sequence (P28845 whole entry, species assumed): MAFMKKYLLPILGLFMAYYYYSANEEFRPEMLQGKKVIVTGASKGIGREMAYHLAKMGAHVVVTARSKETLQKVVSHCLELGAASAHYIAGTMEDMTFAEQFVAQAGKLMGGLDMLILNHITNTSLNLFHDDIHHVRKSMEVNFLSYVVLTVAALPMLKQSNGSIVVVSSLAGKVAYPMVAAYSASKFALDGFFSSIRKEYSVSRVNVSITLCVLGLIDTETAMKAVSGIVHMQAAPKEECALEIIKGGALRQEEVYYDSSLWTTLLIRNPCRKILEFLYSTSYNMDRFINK

| SMILES | Ki (11β-hsd-1 enzyme [1]) | inhibition (11β-hsd-1 enzyme [2]) | inhibition at 100 µM (11β-hsd-1 enzyme [2]; Table 2, inhibitor 0.1 mM as printed) |
| --- | --- | --- | --- |
| CCc1cccc(NS(=O)(=O)N2CCC(C3CCN(C(=O)c4ccc(F)cc4)CC3)CC2)n1 [Example 108, N-(6-ethylpyridin-2-yl)-1′-(4-fluorobenzoyl)-44′-bipiperidine-1-sulfonamide] | 0.06 µM | 89% |  |
| CCc1cccc(NS(=O)(=O)N2CCC(Oc3ccc(Cl)cc3)CC2)n1 [Example 112, 4-(4-chlorophenoxy)-N-(6-ethylpyridin-2-yl)pipendine-1-sulfonamide] | 0.018 µM | 100% |  |
| CCc1cccc(NS(=O)(=O)N2CCC(c3ccccc3F)CC2)n1 [Example 113, N-(6-ethylpyridin-2-yl)-4-(2-fluorophenyl)piperidine-1-sulfonamide] | 0.016 µM | 89.2% |  |
| CCc1cccc(NS(=O)(=O)N2CCCC(COc3ccccc3F)C2)n1 (stereo not shown) [Example 114, N-(6-ethylpyridin-2-yl)-3-[(2-fluorophenoxy)methyl]piperi-dine-1-sulfonamide] | 0.015 µM | 97.4% |  |
| CCc1cccc(NS(=O)(=O)N2CCC(Cc3ccccc3)CC2)n1 [Example 116, 4-benzyl-N-(6-ethylpyridin-2-yl)piperidine-1-sulfonamide] | 0.018 µM | 100% |  |
| CCc1cccc(NS(=O)(=O)N2CCC(C)CC2)n1 [Example 117, N-(6-ethylpyridin-2-yl)-4-methylpiperidine-1-sulfonamide] | 0.045 µM | 65.2% |  |
| CCc1cccc(NS(=O)(=O)N2CCCC(C)C2)n1 (stereo not shown) [Example 118, N-(6-ethylpyridin-2-yl)-3-methylpiperidine-1-sulfonamide] | 0.059 µM | 73.6% |  |
| CCc1cccc(NS(=O)(=O)N2CCC(c3ccccc3OC)CC2)n1 [Example 119, N-(6-ethylpyridin-2-yl)-4-(2-methoxyphenyl)pipendine-1-sulfonamide] | 0.037 µM | 93.1% |  |
| CCc1cccc(NS(=O)(=O)N2CCC(c3ccccc3)CC2)n1 [Example 121, N-(6-ethylpyridin-2-yl)-4-phenylpiperidine-1-sulfanamide] | 0.0035 µM | 100% |  |
| CCc1cccc(NS(=O)(=O)N2CCC(c3cccc(O)c3)CC2)n1 [Example 122, N-(6-ethylpyridin-2-yl)-4-(3-hydroxyphenyl)piperidine-1-sulfonamide] | 0.011 µM | 91.7% |  |
| CCc1cccc(NS(=O)(=O)N2CCC(Oc3ccccc3)CC2)n1 [Example 123, N-(6-ethylpyridin-2-yl)-4-phenoxypiperidine-1-sulfanamide] | 0.022 µM | 100% |  |
| CCc1cccc(NS(=O)(=O)N2CCC(Cc3ccc(F)cc3)CC2)n1 [Example 124, N-(6-ethylpyridin-2-yl)-4-(4-fluorobenzyl)pipendine-1-sulfonamide] | 0.007 µM |  | 88.4% |
| Cc1cccc(NS(=O)(=O)N2CCN(c3ncccn3)CC2)n1 [Example 125, N-(6-methylpyridin-2-yl)-4-pyrimidin-2-ylpiperazine-1-sulfonamide] | 0.0285 µM | 75.1% |  |
| Cc1cccc(NS(=O)(=O)N2CCCCCCC2)n1 [Example 127, N-(6-methylpyridin-2-yl)azocane-1-sulfonamide] | 0.025 µM | 91.8% |  |
| Cc1cccc(NS(=O)(=O)N2CCN(c3ncc(C(F)(F)F)cc3Cl)CC2)n1 [Example 128, 4-[3-chloro-5-(trifluoromethyl)pyridin-2-yl]-N-(6-methylpyridin-2-yl)piperazine-1-sulfonamide] | 0.013 µM | 100% |  |
| CCOC(=O)N1CCN(S(=O)(=O)Nc2cccc(C)n2)CC1 [Example 129, ethyl 4-{[(6-methylpyridin-2-yl)amino]sulfonyl}piperazine-1-carboxylate] | 0.028 µM | 86.6% |  |
| Cc1cccc(NS(=O)(=O)N2CCN(c3cccc(C)n3)CC2)n1 [Example 131, N4-bis(6-methylpyridin-2-yl)piperazine-1-sulfonamide] | 0.029 µM | 93.2% |  |
